Data published in patent US11130780B2, “Inhibitors of growth factor activation enzymes” (Washington University, priority 2015, dated 2021).
Like-named read-outs stand apart in the source and are kept apart here. Residues, ends and D or L forms follow the SMILES beside them. *: point of attachment. AMC = Cc1cc(=O)oc2cc(N*)ccc12; Boc = CC(C)(C)OC(=O)*

Legend:
[1] = biological target: T1, matriptase (Homo sapiens, UniProt Q9Y5Y6); experiment: Km determination of fluorogenic substrate with matriptase; type: biochemical
T1 construct: Charles Craik, UCSF (obtained from another laboratory)
T1 sequence (Q9Y5Y6 615-855 limits assumed): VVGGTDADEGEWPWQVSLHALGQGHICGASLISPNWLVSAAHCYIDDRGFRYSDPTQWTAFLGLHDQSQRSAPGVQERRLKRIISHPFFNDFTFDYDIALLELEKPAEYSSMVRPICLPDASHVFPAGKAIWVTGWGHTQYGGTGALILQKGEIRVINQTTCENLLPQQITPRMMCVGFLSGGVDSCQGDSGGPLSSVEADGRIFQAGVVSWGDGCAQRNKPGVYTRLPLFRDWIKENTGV
Method: (§1) In black 384 well plates (Corning #3575), 12.5 nM HGFA was mixed with various amounts of Boc-QLR-AMC and 1 nM matriptase and 0.3 nM hepsin were mixed with various amounts of Boc-QAR-AMC. Changes in fluorescence (excitation at 380 nm and emission at 460 nn) were measured at room temperature over time in a Biotek Synergy 2 plate reader (Winnoski, Vt.). Using plots of the mean reaction velocity versus substrate concentration and the Michaelis-Menten enzyme kinetics equation within GraphPad Prism version 6.04 for Windows (GraphPad Software, San Diego, Calif., www.graphpad.com), the reaction Vmax and subsequent Km for each of the substrates were determined.

[2] = biological target: T2, HGFA (Homo sapiens, UniProt Q04756); experiment: Km determination of fluorogenic substrate with HGFA; type: biochemical
T2 construct: His6 tag (N); seven amino acid spacer and seven amino acid TEV cleavage site (N); Honey Bee melittin signal peptide (N); made in house; host or cells: High 5 insect cells (baculovirus; virus raised in Sf9)
T2 sequence (Q04756 373-655): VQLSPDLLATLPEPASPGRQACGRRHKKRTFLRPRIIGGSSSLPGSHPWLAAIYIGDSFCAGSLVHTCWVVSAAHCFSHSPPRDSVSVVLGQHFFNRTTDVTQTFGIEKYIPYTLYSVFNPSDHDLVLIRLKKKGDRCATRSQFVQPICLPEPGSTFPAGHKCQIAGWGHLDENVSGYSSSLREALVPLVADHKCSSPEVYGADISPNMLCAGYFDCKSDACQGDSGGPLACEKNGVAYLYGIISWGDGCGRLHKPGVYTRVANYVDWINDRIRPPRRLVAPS
Method: as §1

[3] = biological target: thrombin (Homo sapiens, UniProt P00734); experiment: Chromogenic kinetic enzyme assay of thrombin; type: biochemical
Method: (§2) Inhibitors (11-pt serial dilutions, 0-20 μM final concentration) were serially diluted in DMSO (2% DMSO final concentration) and then mixed with recombinant thrombin (0.15 nM final concentration) or Factor Xa (0.35 nM final concentration) in TNC buffer (25 mM Tris, 150 mM NaCl, 5 mM CaCl2, 0.01% TRITON X-100, pH 8) using clear 384 well plates. […] Changes in absorbance at 405 nm were measured over time in a Biotek Synergy 2 plate (Winnoski, Vt.). Using GraphPad Prism version 6.04 software program, (GraphPad Software, San Diego, Calif., www.graphpad.com), a four parameter curve fit was used to determine the inhibitor IC50s from a plot of the mean reaction velocity versus the inhibitor concentration. Ki values were calculated from the IC50 values using the Cheng and Prusoff equation (Ki=IC50/(1+[S]/Km).

[4] = biological target: T2, HGFA; experiment: Fluorescent kinetic enzyme inhibitor assay of HGFA; type: biochemical; conditions: for Ki: Fluorogenic Assay, read-out: HGFA Ki
In short: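 Recombinant His-tagged HGFA residues 373-655 from insect cells, with substrate at Km. Inhibitors in 11-point dilutions, 0-20 μM final, 2% DMSO, fluorescence (ex 380/em 460 nm) followed over time at room temperature. IC50 from four-parameter fit of mean velocity, average of three experiments.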

[5] = biological target: T3, hepsin (Homo sapiens, UniProt P05981); experiment: Fluorescent kinetic enzyme inhibitor assay of hepsin; type: biochemical; conditions: Table 9.1; Fluorogenic Assay; read-out: Hepsin Ki
T3 construct: purchased R&D Systems 4776-SE-010
In short: (§3)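 Fluorescence (ex 380/em 460 nm) followed kinetically at room temperature; IC50 from four-parameter fit of mean velocity versus concentration, averaged over three experiments.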

[6] = biological target: Factor Xa (Homo sapiens, UniProt P00742); experiment: Chromogenic kinetic enzyme assay of Factor Xa; type: biochemical
Method: as §2

[7] = biological target: T1, matriptase; experiment: Fluorescent kinetic enzyme inhibitor assay of matriptase; type: biochemical; conditions: Fluorogenic Assay
In short: as §3

[8] = biological target: Trypsin; experiment: Trypsin selectivity assay; type: biochemical
[9] = tested on: MDA-MB-231 cells; experiment: MRC5-mediated migration and invasion of MDA-MB-231 cells through Matrigel; type: cell-based, human; conditions: 1 μM, 24 hour
Method: MRC5 fibroblasts were plated in the bottom well of a Boyden chamber, and incubated overnight to condition the attractant media. The following day, MDA-MB-231 or T47D cells+/−inhibitors were plated above on Matrigel coated inserts (8.0 μm membrane inserts, 12-well; Corning 3422) and incubated in FBS media overnight. Inhibitors were added to fresh media and then cells were plated above on the inserts. The cells were fixed and stained at the 24 hour time point. The inserts were then removed and mounted on glass plates where the number of migrated cells were imaged and counted at 4 fields per membrane using a light microscope at 20×.

[10] = biological target: T4, HGFA (Homo sapiens, UniProt Q04756); experiment: Kinetic parameters of ACC substrates (Table 11.4); type: biochemical
T4 sequence (Q04756 408-655 limits assumed): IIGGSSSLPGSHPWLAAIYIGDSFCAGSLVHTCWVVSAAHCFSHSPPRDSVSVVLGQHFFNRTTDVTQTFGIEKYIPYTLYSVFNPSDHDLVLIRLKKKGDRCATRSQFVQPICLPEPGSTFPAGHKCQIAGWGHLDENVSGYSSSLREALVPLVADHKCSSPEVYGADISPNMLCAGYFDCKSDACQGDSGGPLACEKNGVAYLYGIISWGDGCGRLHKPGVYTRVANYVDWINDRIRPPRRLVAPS
T4 sequence (Q04756 373-407 partner limits assumed): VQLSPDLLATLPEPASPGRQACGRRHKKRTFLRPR
From the text: Results for MSP-MS profiling for HGFA substrate cleavage and specificity can be seen in FIG. 20 and Tables 11.1-11.4. IceLogo graphs can be seen in FIGS. 21A and 21B.

[11] = Table 6.2, headed Fluorogenic Assay
[12] = Table 6.2, headed Fluorogenic Assay, read-out: Thrombin Ki
[13] = Table 6.2, headed Fluorogenic Assay, read-out: Factor Xa Ki

Factor Xa, sequence (P00742 235-488 limits assumed): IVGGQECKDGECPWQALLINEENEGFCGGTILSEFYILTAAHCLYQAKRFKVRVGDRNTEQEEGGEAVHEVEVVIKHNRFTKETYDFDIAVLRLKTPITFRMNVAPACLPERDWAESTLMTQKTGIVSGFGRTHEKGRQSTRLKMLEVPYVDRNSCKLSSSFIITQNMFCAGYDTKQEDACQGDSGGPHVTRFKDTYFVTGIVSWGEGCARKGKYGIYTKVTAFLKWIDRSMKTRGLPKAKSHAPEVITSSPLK
Factor Xa, sequence (P00742 41-179 partner limits assumed): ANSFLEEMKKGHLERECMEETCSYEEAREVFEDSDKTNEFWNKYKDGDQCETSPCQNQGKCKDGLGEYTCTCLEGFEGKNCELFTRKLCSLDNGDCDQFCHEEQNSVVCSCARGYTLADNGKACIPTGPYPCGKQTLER
T3 sequence (P05981 163-417 limits assumed): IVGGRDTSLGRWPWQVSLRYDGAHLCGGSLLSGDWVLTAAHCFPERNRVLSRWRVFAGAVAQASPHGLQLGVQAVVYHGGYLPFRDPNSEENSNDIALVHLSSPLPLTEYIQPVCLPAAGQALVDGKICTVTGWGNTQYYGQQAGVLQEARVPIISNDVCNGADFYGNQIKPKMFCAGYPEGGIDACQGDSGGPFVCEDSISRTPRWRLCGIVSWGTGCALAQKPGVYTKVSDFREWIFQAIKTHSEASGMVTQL
T3 sequence (P05981 45-162 partner limits assumed): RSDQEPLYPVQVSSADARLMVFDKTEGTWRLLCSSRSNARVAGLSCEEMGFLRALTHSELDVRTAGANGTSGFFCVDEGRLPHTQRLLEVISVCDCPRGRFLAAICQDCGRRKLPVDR

Molecule | Ki ([4]; Table 6.1) [nM] | Ki [8, 11] [nM] | Ki [3, 12] [nM] | Ki [6, 13] [nM] | further results
Cc1cc(=O)oc2cc(NC(=O)[C@H](CCCNC(=N)N)NC(=O)[C@H](C)NC(=O)[C@H](CCC(N)=O)NC(=O)OC(C)(C)C)ccc12 [Boc-QAR-AMC] (Boc-Gln-Ala-Arg-{AMC}) | – | – | – | – | Km [1]: 93 µM
Cc1cc(=O)oc2cc(NC(=O)[C@H](CCCNC(=N)N)NC(=O)[C@H](CC(C)C)NC(=O)[C@H](CCC(N)=O)NC(=O)OC(C)(C)C)ccc12 [Boc-QLR-AMC] (Boc-Gln-Leu-Arg-{AMC}) | – | – | – | – | Km [2]: 37 µM
N=C(N)c1cccc(C[C@H](NS(=O)(=O)c2ccc3ccccc3c2)C(=O)N2CCN(C(=O)NCc3ccc(Br)cc3)CC2)c1 [Compound 25a, (S)—N-(4-Bromobenzyl)-4-(3-(3-carbamimidoylphenyl)-2-(naphthalene-2-sulfonamido)propanoyl)piperazine-1-carboxamide] | – | – | – | – | Ki ([3]; Table 9.4, read-out: Thrombin Ki): 3110 nM; Ki ([4]; Table 9.1): 16200 nM; Ki [5]: 48 nM; Ki ([6]; Table 9.4, read-out: Factor Xa Ki): 4560 nM; Ki ([7]; Table 9.1): 4200 nM; Ki ([8]; Table 9.4): 2.2 nM
CC(=O)N[C@@H](CCCCN)C(=O)N[C@@H](CCC(N)=O)C(=O)N[C@@H](CC(C)C)C(=O)N[C@@H](CCCNC(=N)N)C(=O)c1nc2ccccc2s1 [Compound 7006, Ac-KQLR(SEQ ID NO: 1)-Kbt] | 30 | 0.24 | – | – | Ki [3]: > 20000 nM; fold increase in HGFA potency ([4]; versus parent compound): 2 fold; Ki [6]: 129 nM
CC(=O)N[C@@H](CO)C(=O)N[C@@H](CCCCN)C(=O)N[C@@H](CC(C)C)C(=O)N[C@@H](CCCNC(=N)N)C(=O)c1nc2ccccc2s1 [Compound 7053, Ac-SKLR(SEQ ID NO: 10)-Kbt] | 33 | 0.16 | – | – | Ki [3]: > 20000 nM; Ki [6]: 1900 nM
CC(=O)N[C@@H](CCCCN)C(=O)N[C@@H](CCCNC(=N)N)C(=O)N[C@@H](CC(C)C)C(=O)N[C@@H](CCCNC(=N)N)C(=O)c1nc2ccccc2s1 [Compound 7054, Ac-KRLR(SEQ ID NO: 8)-Kbt] | 6 | 0.82 | > 20000 | 91.9 | MRC5-mediated migration and invasion [9]: abrogate
CC(=O)N[C@@H](Cc1ccccc1)C(=O)N[C@@H](CC(C)C)C(=O)N[C@@H](Cc1ccccc1)C(=O)N[C@@H](CCCNC(=N)N)C(=O)c1nc2ccccc2s1 [Compound 7063, Ac-FLFR(SEQ ID NO: 19)-Kbt] | 114 | 0.27 | > 20000 | 13.1 | Ki ([7]; Table 6.1): 3.6 nM
CC(C)C[C@H](NC(=O)[C@H](CCCNC(=N)N)NC(=O)[C@@H](N)Cc1c[nH]c2ccccc12)C(=O)N[C@@H](CCCNC(=N)N)C(=O)c1nc2ccccc2s1 [Compound 7117, H-WRLR(SEQ ID NO: 9)-Kbt] | 8.75 | 0.96 | 4890 | 2.4 | –
COC(=O)c1ccc(CNC(=O)c2ccc3nc(C(=O)[C@H](CCCNC(=N)N)NC(=O)[C@H](CC(C)C)NC(=O)[C@H](CCCNC(=N)N)NC(=O)[C@H](CCCCN)NC(C)=O)sc3c2)cc1 [Compound 7158, Ac-KRLR(SEQ ID NO: 8)-kbt-Benzyl-4-COOMe] | 5.85 | 0.05 | 20.9 | 9 | –
COC(=O)c1cccc(CNC(=O)c2ccc3nc(C(=O)[C@H](CCCNC(=N)N)NC(=O)[C@H](CC(C)C)NC(=O)[C@H](CCCNC(=N)N)NC(=O)[C@H](CCCCN)NC(C)=O)sc3c2)c1 [Compound 7159, Ac-KRLR(SEQ ID NO: 8)-kbt-Benzyl-3-COOMe] | 7.76 | 0.04 | 85.4 | 14 | –
N=C(N)NCCC[C@H](NC(=O)[C@H](Cc1ccccc1)NC(=O)OCC1c2ccccc2-c2ccccc21)C(=O)c1nc2ccccc2s1 [Compound 7187-14, Fmoc-FR-kbt] | 964 | 14.3 | > 2000 | 28.4 | –
Ac-His(3Bom)-Agp-hLeu-Arg-ACC | – | – | – | – | Km [10]: 52.1 µM
